These results are taken from US20260325533A1, “CDK INHIBITOR COMPOUNDS” (ALEKSIA THERAPEUTICS, INC., priority 2023, published 2026).

Chain of CDK1/CCNB1 (P06493 whole entry): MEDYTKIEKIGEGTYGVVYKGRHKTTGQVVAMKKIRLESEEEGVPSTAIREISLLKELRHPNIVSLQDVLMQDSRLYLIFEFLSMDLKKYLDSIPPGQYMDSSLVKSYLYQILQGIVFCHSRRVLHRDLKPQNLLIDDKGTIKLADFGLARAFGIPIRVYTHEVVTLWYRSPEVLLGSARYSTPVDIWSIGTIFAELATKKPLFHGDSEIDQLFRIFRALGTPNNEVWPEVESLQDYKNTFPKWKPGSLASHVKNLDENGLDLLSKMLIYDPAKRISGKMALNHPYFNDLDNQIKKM
Chain of CDK1/CCNB1 (P14635 whole entry partner): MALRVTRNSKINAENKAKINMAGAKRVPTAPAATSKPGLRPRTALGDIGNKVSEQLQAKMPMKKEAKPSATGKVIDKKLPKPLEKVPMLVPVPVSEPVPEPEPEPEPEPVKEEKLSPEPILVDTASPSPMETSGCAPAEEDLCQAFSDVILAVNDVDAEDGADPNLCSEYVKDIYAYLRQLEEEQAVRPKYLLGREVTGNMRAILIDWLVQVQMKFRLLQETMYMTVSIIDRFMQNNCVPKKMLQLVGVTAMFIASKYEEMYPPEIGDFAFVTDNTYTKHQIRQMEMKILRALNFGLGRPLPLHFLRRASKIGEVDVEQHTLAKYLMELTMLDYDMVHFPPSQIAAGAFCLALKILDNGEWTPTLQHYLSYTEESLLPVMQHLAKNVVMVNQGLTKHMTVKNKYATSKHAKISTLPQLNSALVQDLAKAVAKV

The target in the first test is CDK2/CCNE1 (Homo sapiens, UniProt P24941). The test can be described thus: CDK2 homogeneous time-resolved fluorescence (HTRF) kinase assay. In kind it is biochemical. The conditions noted are these: <25 nM; CDK2/CCNE; read-out: CDK2/CCNE IC50, <25 nM. As to the method:
(§1) A CDK homogeneous time-resolved fluorescence (HTRF) assay was used to assess the potency of the compounds described herein.
(§2) To an untreated 384-well microtiter plate (ProxiPlate) was added 100 nL 100×test compound in DMSO and 5 μL 2×CDK enzyme in assay buffer (50 mM HEPES, 1 mM EGTA, 10 mM MgCl2, 0.01% Tween 20, 2 mM DTT). The plate was centrifuged at 800 RPM for 1 min then incubated for 20 min at 23 °C. 2.5 μL per well of 4×ATP and 2.5 μL 4×ULight™-eIF4E-binding protein 1 (Thr37/46) Peptide substrate were added to all wells. After addition, the plates were centrifuged at 800 RPM for 1 min. The plates were incubated at 23 °C for 60 min. 5 μL per well 4×EDTA solution were added to each well to stop the reaction. 5 μL 4×LANCE Ultra Europium-anti-phospho-eIF4E-binding protein 1 (Thr37/46) antibody were added to each well and the plate was centrifuged for 1 min at 800 RPM. The plate was incubated for 60 min at 23 °C. Fluorescence was read at 340 nm excitation and 665 nm emission on an En Vision 2105 fluorescence reader. The final concentrations of reagents in the activity assay were 3 nM CDK2/CCNE1, 1 mM ATP, 50 nM ULight™-eIF4E-binding protein 1 (Thr37/46) Peptide substrate, 1% DMSO, 10 mM EDTA, and 2 nM LANCE Ultra Europium-anti-phospho-eIF4E-binding protein 1 (Thr37/46).
(§3) Dose-response titrations were conducted by using an 11-point, half-logarithmic serial dilution scheme typically starting at 10 μM. Signals were reported as fluorescence units at 665 nm or the ratio of fluorescence units at 665 nm/fluorescence units at 615 nm. Signals are referred to below as “Lance signals”.
(§4) Using this assay, the IC50 values of example compounds were determined. Table 3 illustrates the IC50 for various Example compounds of Formula IA. Table 4 illustrates the IC50 for various other Example compounds of Formula I. ND=not determined.
On to `Cc1c(-c2nccc3cnc(Nc4ccc(S(=N)(=O)NC5CCC5)cc4)cc23)ccc2c1cnn2CC(O)(C(F)(F)F)C(F)(F)F` (single isomer, unassigned) [Ex 690, N-cyclobutyl-4-((5-(4-methyl-1-(3,3,3-trifluoro-2-hydroxy-2-(trifluoromethyl)propyl)-1H-indazol-5-yl)-2,6-naphthyridin-3-yl)amino)benzenesulfonimidamide], for which the IC50 is below 25 nM.

Consider `Cc1c(-c2nccc3cnc(Nc4ccc(S(=N)(=O)Nc5ccccc5)cc4)cc23)ccc2c1cnn2CC(O)(C(F)(F)F)C(F)(F)F` (single isomer, unassigned) [Ex 693, 4-((5-(4-methyl-1-(3,3,3-trifluoro-2-hydroxy-2-(trifluoromethyl)propyl)-1H-indazol-5-yl)-2,6-naphthyridin-3-yl)amino)-N-phenylbenzenesulfonimidamide], for which the IC50 is below 25 nM.

The same test, now with this note: >250 nM; CDK2/CCNE; read-out: CDK2/CCNE IC50, >250 nM.
Turning to `CS(=O)(=O)c1ccc(Nc2cc3c(C#Cc4cccnc4O)nccc3cn2)cc1` [Ex 902, 3-((7-((4-(methylsulfonyl)phenyl)amino)-2,6-naphthyridin-1-yl)ethynyl)pyridin-2-ol], the IC50 is above 250 nM.

The same test, now with this note: CDK2/CCNE; 25-250 nM marked x; read-out: CDK2/CCNE IC50 25-250 nM.
As for `CNC(=O)C1CCCN(c2nccc3cnc(NC4CCN(S(C)(=O)=O)CC4)cc23)C1` (single isomer, unassigned) [Ex 31, N-methyl-1-(7-((1-(methylsulfonyl)piperidin-4-yl)amino)-2,6-naphthyridin-1-yl)piperidine-3-carboxamide], the IC50 is 25 to 250 nM. On the same count and under the same terms, the result for `CCC1(CC)C(=O)Nc2cc(C#Cc3nccc4cnc(Nc5ccc(S(=N)(=O)C6CCC6)cc5OC)cc34)ccc21` (single isomer, unassigned) [Ex 272, 6-((7-((4-(cyclobutanesulfonimidoyl)-2-methoxyphenyl)amino)-2,6-naphthyridin-1-yl)ethynyl)-3,3-diethylindolin-2-one] reads 25 to 250 nM; that for `CCC1(CC)C(=O)Nc2cc(C#Cc3nccc4cnc(Nc5ccc(S(=N)(=O)C6CC(F)(F)C6)cc5F)cc34)ccc21` (single isomer, unassigned) [Ex 302, 6-((7-((4-(3,3-difluorocyclobutane-1-sulfonimidoyl)-2-fluorophenyl)amino)-2,6-naphthyridin-1-yl)ethynyl)-3,3-diethylindolin-2-one], 25 to 250 nM. On the same count and under the same terms, the result for `CCC1(CC)C(=O)Nc2cc(C#Cc3nccc4cnc(Nc5ccc(S(=N)(=O)C(C)C)cc5OC)cc34)ccc21` (single isomer, unassigned) [Ex 341, 3,3-diethyl-6-((7-((2-methoxy-4-(propan-2-ylsulfonimidoyl)phenyl)amino)-2,6-naphthyridin-1-yl)ethynyl)indolin-2-one] reads 25 to 250 nM; that for `CS(=O)(=O)N1CCC(Nc2cc3c(N4CCOCC4)nccc3cn2)CC1` [Ex 30, N-(1-(methylsulfonyl)piperidin-4-yl)-5-morpholino-2,6-naphthyridin-3-amine], 25 to 250 nM; that for `CC(=O)N1CCN(c2nccc3cnc(NC4CCN(S(C)(=O)=O)CC4)cc23)CC1` [Ex 58, 1-(4-(7-((1-(methylsulfonyl)piperidin-4-yl)amino)-2,6-naphthyridin-1-yl)piperazin-1-yl)ethan-1-one], 25 to 250 nM. The same measure, in the same setting: the result for `CS(=O)(=O)N1CCC(Nc2cc3c(-c4ccc(C#N)nc4)nccc3cn2)CC1` [Ex 79, 5-(7-((1-(methylsulfonyl)piperidin-4-yl)amino)-2,6-naphthyridin-1-yl)picolinonitrile] reads 25 to 250 nM.

Turning to `COC(=O)c1ccc(Nc2cc3c(C4=CCCCC4)nccc3cn2)cc1` [Ex 101, methyl 4-((5-(cyclohex-1-en-1-yl)-2,6-naphthyridin-3-yl)amino)benzoate], the IC50 lay in the range of 25 to 250 nM. Still for that read-out and setting: the result for `O=C(Oc1ccc(F)cc1)c1ccc(Nc2cc3c(C4=CCCCC4)nccc3cn2)cc1` [Ex 254, 4-fluorophenyl 4-((5-(cyclohex-1-en-1-yl)-2,6-naphthyridin-3-yl)amino)benzoate] reads 25 to 250 nM.

Still in this test, the particulars now being: CDK2/CCNE; <25 nM; read-out: CDK2/CCNE IC50 <25 nM.
Regarding `CCC1(CC)C(=O)Nc2cc(C#Cc3nccc4cnc(Nc5ccc(S(C)(=N)=O)cc5C(F)F)cc34)ccc21` (single isomer, unassigned) [Ex 295, 6-((7-((2-(difluoromethyl)-4-(S-methylsulfonimidoyl)phenyl)amino)-2,6-naphthyridin-1-yl)ethynyl)-3,3-diethylindolin-2-one], the IC50 is below 25 nM. Still for that read-out and setting: with `CCC1(CC)C(=O)Nc2cc(C#Cc3nccc4cnc(Nc5ccc(S(=N)(=O)C6CC6)cc5OC)cc34)ccc21` (single isomer, unassigned) [Ex 300, 6-((7-((4-(cyclopropanesulfonimidoyl)-2-methoxyphenyl)amino)-2,6-naphthyridin-1-yl)ethynyl)-3,3-diethylindolin-2-one] the figure was below 25 nM; with `CCC1(CC)C(=O)Nc2cc(C#Cc3nccc4cnc(Nc5ccc(S(=N)(=O)CC)cc5OC)cc34)ccc21` (single isomer, unassigned) [Ex 309, 3,3-diethyl-6-((7-((4-(ethylsulfonimidoyl)-2-methoxyphenyl)amino)-2,6-naphthyridin-1-yl)ethynyl)indolin-2-one], below 25 nM; with `COc1cc(S(C)(=N)=O)ccc1Nc1cc2c(C#Cc3ccc4c(c3)NC(=O)C43CCC3)nccc2cn1` (single isomer, unassigned) [Ex 314, 6'-((7-((2-methoxy-4-(S-methylsulfonimidoyl)phenyl)amino)-2,6-naphthyridin-1-yl)ethynyl)spiro[cyclobutane-1,3'-indolin]-2'-one], below 25 nM. The same measure, in the same setting: the result for `CCC1(CC)C(=O)Nc2cc(C#Cc3nccc4cnc(Nc5ccc(S(=N)(=O)C6COC6)cc5OC)cc34)ccc21` (single isomer, unassigned) [Ex 318, 3,3-diethyl-6-((7-((2-methoxy-4-(oxetane-3-sulfonimidoyl)phenyl)amino)-2,6-naphthyridin-1-yl)ethynyl)indolin-2-one] reads below 25 nM; that for `CCC1(CC)C(=O)Nc2cc(C#Cc3nccc4cnc(Nc5ccc(S(C)(=N)=O)cc5OC)cc34)ccc21` (single isomer, unassigned) [Ex 320, 3,3-diethyl-6-((7-((2-methoxy-4-(S-methylsulfonimidoyl)phenyl)amino)-2,6-naphthyridin-1-yl)ethynyl)indolin-2-one], below 25 nM.

Staying with this test, now noted: CDK2/CCNE; x = IC50 <25 nM; read-out: CDK2/CCNE IC50 (<25 nM).
Take `CCS(=N)(=O)c1ccc(Nc2cc3c(C#Cc4ccc5c(c4)NC(=O)C54CC4)nccc3cn2)cc1` (racemic) [Ex 377, 6'-((7-((4-(ethylsulfonimidoyl)phenyl)amino)-2,6-naphthyridin-1-yl)ethynyl)spiro[cyclopropane-1,3'-indolin]-2'-one]: the IC50 is below 25 nM.

The target of a further test is CDK1/CCNB1 (Homo sapiens, UniProt P06493). The experiment in a line: CDK1 homogeneous time-resolved fluorescence (HTRF) kinase assay. In kind it is biochemical. Particulars: CDK1/CCNB; 25-250 nM marked x; read-out: CDK1/CCNB IC50 25-250 nM. As to the method:
as §1
as §2, with “were 0.5” for “were 3”, “nM CDK1/CCNB1,” for “nM CDK2/CCNE1,”
as §3, §4
Regarding `N=S(=O)(c1ccc(Nc2cc3c(C#Cc4ccc5c(c4)NC(=O)C54CC4)nccc3cn2)c(F)c1)C1COC1` (single isomer, unassigned) [Ex 276, 6'-((7-((2-fluoro-4-(oxetane-3-sulfonimidoyl)phenyl)amino)-2,6-naphthyridin-1-yl)ethynyl)spiro[cyclopropane-1,3'-indolin]-2'-one], the IC50 lay in the range of 25 to 250 nM.

The test is the same for the next values; noted with them: CDK1/CCNB; <25 nM; read-out: CDK1/CCNB IC50 <25 nM.
In the case of `N=S(=O)(c1ccc(Nc2cc3c(C#Cc4ccc5c(c4)NC(=O)C54CC4)nccc3cn2)cc1)C1CC1` (single isomer, unassigned) [Ex 307, 6'-((7-((4-(cyclopropanesulfonimidoyl)phenyl)amino)-2,6-naphthyridin-1-yl)ethynyl)spiro[cyclopropane-1,3'-indolin]-2'-one], the IC50 was below 25 nM.
